{"source": "ChEMBL document CHEMBL1201862", "about": "“PubChem BioAssay data set” (2004)", "key": {"[1]": {"assay": "Counterscreen for inhibitors of Trypanosoma brucei methionyl tRNA synthetase (MetRS): Luminescence-based cell-based high throughput dose response assay to identify compounds that are cytotoxic to Jurkat human T lymphocyte cells.", "type": "functional"}, "[2]": {"target": "T1, Methionyl-tRNA synthetase, putative (Trypanosoma brucei brucei, UniProt Q38C91)", "T1 sequence (Q38C91 whole entry)": "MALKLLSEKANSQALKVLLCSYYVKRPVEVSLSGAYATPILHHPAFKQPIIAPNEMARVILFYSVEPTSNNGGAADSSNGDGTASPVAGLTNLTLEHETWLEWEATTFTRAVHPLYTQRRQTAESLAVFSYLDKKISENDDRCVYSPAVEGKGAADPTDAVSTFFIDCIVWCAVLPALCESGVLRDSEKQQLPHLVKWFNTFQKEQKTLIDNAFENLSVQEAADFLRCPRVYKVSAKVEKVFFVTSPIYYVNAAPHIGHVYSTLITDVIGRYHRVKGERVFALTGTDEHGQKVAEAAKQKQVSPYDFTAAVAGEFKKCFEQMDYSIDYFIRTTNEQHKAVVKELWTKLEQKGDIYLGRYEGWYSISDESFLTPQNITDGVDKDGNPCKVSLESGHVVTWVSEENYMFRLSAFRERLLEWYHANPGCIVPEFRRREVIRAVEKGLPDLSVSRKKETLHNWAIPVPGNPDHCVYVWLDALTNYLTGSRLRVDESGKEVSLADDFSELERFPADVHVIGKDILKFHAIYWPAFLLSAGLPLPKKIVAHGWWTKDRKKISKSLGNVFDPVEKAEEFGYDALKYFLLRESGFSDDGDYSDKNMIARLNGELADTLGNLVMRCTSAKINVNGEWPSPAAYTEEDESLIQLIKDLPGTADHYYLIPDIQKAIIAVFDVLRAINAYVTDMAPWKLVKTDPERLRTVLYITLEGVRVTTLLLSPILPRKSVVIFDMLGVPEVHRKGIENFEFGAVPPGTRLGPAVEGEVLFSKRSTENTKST", "type": "functional, Trypanosoma brucei brucei strain 927/4 GUTat10.1"}, "[3]": {"assay": "Late stage counterscreen for inhibitors of Trypanosoma brucei methionyl tRNA synthetase (MetRS): Luminescence-based cell-based high throughput dose response assay to identify compounds that are cytotoxic to Jurkat human T lymphocyte cells.", "type": "functional"}, "[4]": {"target": "T1, Methionyl-tRNA synthetase, putative", "type": "functional, Trypanosoma brucei brucei strain 927/4 GUTat10.1", "remark": "listed apart in the source"}, "[5]": {"target": "DNA dC->dU-editing enzyme APOBEC-3A (Homo sapiens, UniProt P31941)", "sequence (P31941 whole entry)": "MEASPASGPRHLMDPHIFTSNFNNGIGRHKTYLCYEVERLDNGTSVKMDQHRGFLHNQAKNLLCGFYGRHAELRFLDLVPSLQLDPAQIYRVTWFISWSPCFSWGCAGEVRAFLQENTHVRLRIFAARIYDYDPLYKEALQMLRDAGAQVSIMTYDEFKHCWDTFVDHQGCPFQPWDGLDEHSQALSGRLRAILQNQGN", "assay": "APOBEC3A DNA deaminase inhibitors, dose response, biochemical (AID 504722)", "type": "functional"}, "[6]": {"target": "DNA (cytosine-5)-methyltransferase 1 (Homo sapiens, UniProt P26358)", "sequence (P26358 whole entry)": "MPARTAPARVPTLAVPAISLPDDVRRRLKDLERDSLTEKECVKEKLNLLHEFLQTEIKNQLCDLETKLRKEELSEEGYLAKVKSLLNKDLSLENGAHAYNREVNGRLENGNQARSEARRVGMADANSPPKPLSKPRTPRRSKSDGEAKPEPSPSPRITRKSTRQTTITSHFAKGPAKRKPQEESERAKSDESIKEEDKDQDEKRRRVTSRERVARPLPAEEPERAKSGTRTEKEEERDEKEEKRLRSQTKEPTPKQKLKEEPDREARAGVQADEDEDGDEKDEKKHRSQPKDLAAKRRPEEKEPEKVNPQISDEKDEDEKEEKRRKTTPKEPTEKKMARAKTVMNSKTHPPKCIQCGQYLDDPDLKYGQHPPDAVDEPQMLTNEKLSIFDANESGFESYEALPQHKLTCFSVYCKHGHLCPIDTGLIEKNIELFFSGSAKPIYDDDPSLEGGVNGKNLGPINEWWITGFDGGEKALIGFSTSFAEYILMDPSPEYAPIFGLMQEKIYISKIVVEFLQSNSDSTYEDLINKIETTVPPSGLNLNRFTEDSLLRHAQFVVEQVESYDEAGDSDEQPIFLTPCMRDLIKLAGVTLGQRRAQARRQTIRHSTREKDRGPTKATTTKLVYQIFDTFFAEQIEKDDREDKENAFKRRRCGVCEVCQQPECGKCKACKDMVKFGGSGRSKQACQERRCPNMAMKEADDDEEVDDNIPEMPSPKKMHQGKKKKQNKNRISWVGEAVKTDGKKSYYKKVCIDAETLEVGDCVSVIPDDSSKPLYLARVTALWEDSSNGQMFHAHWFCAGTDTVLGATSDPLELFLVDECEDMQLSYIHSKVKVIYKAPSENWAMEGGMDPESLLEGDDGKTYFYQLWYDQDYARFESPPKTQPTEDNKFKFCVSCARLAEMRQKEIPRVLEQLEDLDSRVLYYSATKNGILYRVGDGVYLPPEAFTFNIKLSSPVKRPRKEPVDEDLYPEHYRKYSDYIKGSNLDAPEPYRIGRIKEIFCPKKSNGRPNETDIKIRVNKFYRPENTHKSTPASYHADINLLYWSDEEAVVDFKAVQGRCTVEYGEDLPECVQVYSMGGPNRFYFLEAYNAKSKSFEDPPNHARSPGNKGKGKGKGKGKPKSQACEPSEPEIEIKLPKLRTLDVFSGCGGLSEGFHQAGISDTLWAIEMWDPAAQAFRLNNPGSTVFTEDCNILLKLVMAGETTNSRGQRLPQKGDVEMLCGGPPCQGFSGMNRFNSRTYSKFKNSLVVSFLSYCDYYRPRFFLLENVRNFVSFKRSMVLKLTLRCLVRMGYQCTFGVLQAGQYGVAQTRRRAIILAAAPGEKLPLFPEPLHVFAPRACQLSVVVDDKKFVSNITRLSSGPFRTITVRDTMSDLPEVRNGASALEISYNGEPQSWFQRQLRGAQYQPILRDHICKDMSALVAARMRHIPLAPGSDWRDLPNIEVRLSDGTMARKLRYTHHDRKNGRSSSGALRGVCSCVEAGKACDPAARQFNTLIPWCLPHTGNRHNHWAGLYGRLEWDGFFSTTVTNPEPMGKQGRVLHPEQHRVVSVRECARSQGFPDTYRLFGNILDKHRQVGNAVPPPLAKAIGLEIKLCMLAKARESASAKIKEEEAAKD", "assay": "DNMT1 methyltransferase inhibitors, confirmation, biochemical, fluorescent molecular beacon (AID 602386)", "type": "functional"}, "[7]": {"target": "26S proteasome non-ATPase regulatory subunit 14 (Homo sapiens, UniProt O00487)", "sequence (O00487 whole entry)": "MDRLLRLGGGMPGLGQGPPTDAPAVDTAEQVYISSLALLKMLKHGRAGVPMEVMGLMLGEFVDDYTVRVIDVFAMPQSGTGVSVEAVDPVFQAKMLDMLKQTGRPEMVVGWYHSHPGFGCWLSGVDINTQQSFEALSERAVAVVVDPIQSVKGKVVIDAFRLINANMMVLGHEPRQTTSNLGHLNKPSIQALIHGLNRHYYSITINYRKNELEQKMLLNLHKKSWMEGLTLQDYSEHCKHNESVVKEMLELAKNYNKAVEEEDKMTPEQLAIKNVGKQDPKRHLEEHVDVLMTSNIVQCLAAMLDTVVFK", "assay": "inhibition of proteasome subunit RPN11 – biochemical, fluorescence polarization, uHTS hits, confirmation (AID 602368)", "type": "functional"}, "[8]": {"target": "Prothrombin (Bos taurus, UniProt P00735)", "assay": "thrombin inhibition, dose response, biochemical, fluorescence polarization, uHTS hits (AID 602369)", "type": "functional"}, "[9]": {"target": "DNA dC->dU-editing enzyme APOBEC-3G (Homo sapiens, UniProt Q9HC16)", "assay": "Dose Response confirmation of small molecule APOBEC3G DNA Deaminase Inhibitors via a fluorescence-based single-stranded DNA deaminase assay. [Related pubchem assays (depositor defined):AID493012, AID493028]", "type": "functional"}, "[10]": {"target": "T2, Carboxy-terminal domain RNA polymerase II polypeptide A small phosphatase 1 (Homo sapiens, UniProt Q9GZU7)", "T2 sequence (Q9GZU7 whole entry)": "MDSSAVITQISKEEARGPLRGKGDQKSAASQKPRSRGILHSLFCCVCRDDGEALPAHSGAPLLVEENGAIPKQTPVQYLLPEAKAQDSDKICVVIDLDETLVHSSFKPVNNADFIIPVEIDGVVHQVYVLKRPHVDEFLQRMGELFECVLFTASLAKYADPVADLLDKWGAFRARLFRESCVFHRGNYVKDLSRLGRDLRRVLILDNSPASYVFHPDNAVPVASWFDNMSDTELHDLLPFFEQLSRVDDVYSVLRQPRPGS", "assay": "inhibitors of CTDSP1, concentration-response testing, biochemical assay, absorbance-based, actives from ultra-high-throughput screening (AID 540297)", "type": "functional"}, "[11]": {"target": "E3 ubiquitin-protein ligase UHRF1 (Homo sapiens, UniProt Q96T88)", "sequence (Q96T88 whole entry, the tested form may be a part)": "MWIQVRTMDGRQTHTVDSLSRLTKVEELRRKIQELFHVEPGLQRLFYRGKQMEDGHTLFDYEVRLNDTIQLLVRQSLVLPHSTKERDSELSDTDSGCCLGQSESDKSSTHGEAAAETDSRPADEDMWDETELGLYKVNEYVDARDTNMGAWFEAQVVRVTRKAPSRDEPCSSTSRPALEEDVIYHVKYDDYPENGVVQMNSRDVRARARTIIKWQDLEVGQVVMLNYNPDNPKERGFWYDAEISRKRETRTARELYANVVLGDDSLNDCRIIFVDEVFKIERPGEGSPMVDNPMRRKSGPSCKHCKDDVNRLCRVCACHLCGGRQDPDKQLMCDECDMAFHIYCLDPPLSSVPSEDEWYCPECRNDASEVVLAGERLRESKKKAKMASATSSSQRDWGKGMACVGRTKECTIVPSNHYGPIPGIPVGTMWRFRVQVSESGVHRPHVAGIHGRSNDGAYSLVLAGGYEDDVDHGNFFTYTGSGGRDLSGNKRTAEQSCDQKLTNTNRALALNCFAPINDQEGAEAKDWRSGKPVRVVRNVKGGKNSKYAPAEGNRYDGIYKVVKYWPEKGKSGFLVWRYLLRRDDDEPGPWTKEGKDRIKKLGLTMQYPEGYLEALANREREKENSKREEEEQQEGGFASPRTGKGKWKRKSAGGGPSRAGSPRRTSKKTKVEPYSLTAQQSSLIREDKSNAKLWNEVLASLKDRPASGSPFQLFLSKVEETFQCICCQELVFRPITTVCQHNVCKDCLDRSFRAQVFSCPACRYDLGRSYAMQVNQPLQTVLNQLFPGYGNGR", "assay": "Counterscreen for inhibitors of 5-meCpG-binding domain protein 2 (MBD2): TRFRET-based biochemical high throughput dose response assay to identify inhibitors of binding of ubiquitin-like with PHD and ring finger domains 1 (UHRF1) to methylated oligonucleotide."}, "[12]": {"target": "72 kDa type IV collagenase (Homo sapiens, UniProt P08253)", "sequence (P08253 whole entry)": "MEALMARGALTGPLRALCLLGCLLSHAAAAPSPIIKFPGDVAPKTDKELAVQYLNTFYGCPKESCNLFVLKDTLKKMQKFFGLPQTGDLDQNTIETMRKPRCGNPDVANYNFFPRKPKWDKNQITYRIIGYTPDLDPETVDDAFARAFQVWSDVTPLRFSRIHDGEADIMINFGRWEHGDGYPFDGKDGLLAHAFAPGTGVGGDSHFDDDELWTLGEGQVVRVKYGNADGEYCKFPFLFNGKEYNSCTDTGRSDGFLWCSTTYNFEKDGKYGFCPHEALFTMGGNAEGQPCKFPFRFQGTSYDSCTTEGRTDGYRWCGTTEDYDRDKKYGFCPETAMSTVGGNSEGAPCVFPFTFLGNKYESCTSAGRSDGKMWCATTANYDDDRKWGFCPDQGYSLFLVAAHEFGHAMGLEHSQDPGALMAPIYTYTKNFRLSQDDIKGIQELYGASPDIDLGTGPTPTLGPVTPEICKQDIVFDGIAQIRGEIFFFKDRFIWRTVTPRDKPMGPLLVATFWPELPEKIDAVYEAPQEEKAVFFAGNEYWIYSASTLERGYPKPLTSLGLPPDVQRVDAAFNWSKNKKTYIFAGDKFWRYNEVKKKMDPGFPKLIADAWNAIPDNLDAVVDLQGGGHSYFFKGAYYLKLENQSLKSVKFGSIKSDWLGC", "assay": "Dose Response validation of uHTS RPN11 inhibitor hits using a MMP-2 Fluorescence assay.", "type": "functional"}, "[13]": {"target": "Eukaryotic translation initiation factor 4E (Mus musculus, UniProt P63073)", "sequence (P63073 whole entry)": "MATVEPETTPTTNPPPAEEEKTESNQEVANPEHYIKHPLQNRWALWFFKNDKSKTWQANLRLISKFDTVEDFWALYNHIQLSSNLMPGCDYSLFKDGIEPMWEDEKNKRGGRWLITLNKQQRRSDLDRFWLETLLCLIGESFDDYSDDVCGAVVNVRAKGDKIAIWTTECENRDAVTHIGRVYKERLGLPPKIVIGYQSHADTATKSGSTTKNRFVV", "assay": "eIF4E–eIF4G protein interaction inhibitors, dose response, biochemical, TR-FRET (AID 855);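 note: potency for disrupting eIF4E binding to eIF4GI seen as loss of FRET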", "type": "functional"}, "[14]": {"target": "T3, Fibrinogen beta chain (Homo sapiens, UniProt P02675)", "T3 sequence (P02675 whole entry, the tested form may be a part)": "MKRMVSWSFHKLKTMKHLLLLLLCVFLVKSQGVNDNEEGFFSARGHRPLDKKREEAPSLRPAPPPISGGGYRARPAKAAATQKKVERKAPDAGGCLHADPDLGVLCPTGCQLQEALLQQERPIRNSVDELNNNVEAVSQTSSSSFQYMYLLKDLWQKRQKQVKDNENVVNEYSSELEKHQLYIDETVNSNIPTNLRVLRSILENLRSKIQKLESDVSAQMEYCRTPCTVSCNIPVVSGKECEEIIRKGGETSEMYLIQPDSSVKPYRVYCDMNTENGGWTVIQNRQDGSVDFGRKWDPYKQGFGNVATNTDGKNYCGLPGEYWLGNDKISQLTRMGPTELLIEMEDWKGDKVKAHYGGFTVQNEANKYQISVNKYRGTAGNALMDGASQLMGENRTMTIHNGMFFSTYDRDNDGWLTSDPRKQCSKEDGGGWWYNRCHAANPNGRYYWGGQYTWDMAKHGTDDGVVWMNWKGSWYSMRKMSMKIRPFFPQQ", "assay": "Fluorescence polarization-based biochemical high throughput dose response assay to identify inhibitors that disrupt the binding of a cyclic peptide (Tn7) to the fibrin proteolytic product D-Dimer and fragment E complex [DD(E )]."}, "[15]": {"target": "T3, Fibrinogen beta chain", "assay": "Fluorescence polarization-based biochemical high throughput dose response assay to identify inhibitors that disrupt the binding of a cyclic peptide (Tn6) to the fibrin proteolytic product D-Dimer and fragment E complex [DD(E )]."}, "[16]": {"test_system": "BJ", "assay": "cells", "type": "functional, cell-based", "settings": "Homo sapiens"}, "[17]": {"assay": "Luminescence Cell-Based Dose Response HTS to Identify Inhibitors of 5'UTR Stem-Loop Driven Prion Protein mRNA Translation in H4 Neuroglioblastoma Cells. [Related pubchem assays: 1827 (Project Summary), 1813 (Primary HTS)]", "type": "functional"}, "[18]": {"test_system": "BJ", "assay": "cytotoxicity toward BJ-TERT fibroblasts, dose response, cell-based, RAS-independent, luminescence (AID 1933)", "type": "functional", "settings": "Homo sapiens"}, "[19]": {"assay": "cytotoxicity in HEK-293T cells, dose response, cytotoxicity control for TCR NF-kB inhibitor project, luminescence, T-cell screen hits (AID 489026);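 note: cells exposed to compound about 14 hours before the viability readout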", "type": "functional, cell-based"}, "[20]": {"assay": "inhibitors of SNCA 5'UTR-driven reporter translation, confirmation, H4 neuroglioma cells, luminescence (AID 1988)", "type": "functional, cell-based"}, "[21]": {"assay": "inhibitors of firefly luciferase expression or activity, dose response, H4 neuroglioma cells, luminescence (AID 1990)", "type": "functional, cell-based"}, "[22]": {"assay": "HEK293 cell cytotoxicity, dose response, cytotoxicity control, dry powder samples (AID 720567)", "type": "functional, cell-based"}, "[23]": {"test_system": "BJ", "assay": "cytotoxicity toward BJ-TERT-LT-ST fibroblasts, dose response, cell-based, RAS-independent, luminescence (AID 1935);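 note: BJ fibroblasts immortalized with TERT plus LT and ST oncogenes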", "type": "functional", "settings": "Homo sapiens"}, "[24]": {"assay": "cytotoxicity toward DRD oncogenic fibroblasts, dose response, cell-based, non-viral oncogenic, luminescence (AID 1934)", "type": "functional", "settings": "Homo sapiens"}, "[25]": {"assay": "Luminescence-based cell-based high throughput dose response assay to identify activators of the DAF-12 from the parasite S. stercoralis (ssDAF-12).", "type": "functional"}, "[26]": {"target": "T4, Oxysterols receptor LXR-beta (Homo sapiens, UniProt P55055)", "T4 sequence (P55055 whole entry)": "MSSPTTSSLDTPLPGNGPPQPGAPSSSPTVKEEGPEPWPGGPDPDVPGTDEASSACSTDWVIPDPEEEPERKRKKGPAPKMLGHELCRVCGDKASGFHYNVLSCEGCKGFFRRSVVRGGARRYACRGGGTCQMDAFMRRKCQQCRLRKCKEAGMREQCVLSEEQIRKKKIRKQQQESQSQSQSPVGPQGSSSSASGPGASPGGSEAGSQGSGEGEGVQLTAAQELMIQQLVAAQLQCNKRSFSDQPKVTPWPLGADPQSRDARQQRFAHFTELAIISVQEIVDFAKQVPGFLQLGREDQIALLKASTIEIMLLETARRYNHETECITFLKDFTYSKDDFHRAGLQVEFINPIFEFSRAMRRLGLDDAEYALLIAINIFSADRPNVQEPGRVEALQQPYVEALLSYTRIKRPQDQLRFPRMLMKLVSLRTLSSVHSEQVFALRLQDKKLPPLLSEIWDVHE", "assay": "LXR agonists, Gal4 luciferase reporter, dose response, counter-screen for ssDAF-12 agonist project, cell-based, luminescence, HEK293, S. stercoralis campaign (AID 720737)", "type": "functional", "settings": "read-out: IC50 (the source's name)"}, "[27]": {"target": "Paired box protein Pax-8 (Homo sapiens, UniProt Q06710)", "sequence (Q06710 whole entry)": "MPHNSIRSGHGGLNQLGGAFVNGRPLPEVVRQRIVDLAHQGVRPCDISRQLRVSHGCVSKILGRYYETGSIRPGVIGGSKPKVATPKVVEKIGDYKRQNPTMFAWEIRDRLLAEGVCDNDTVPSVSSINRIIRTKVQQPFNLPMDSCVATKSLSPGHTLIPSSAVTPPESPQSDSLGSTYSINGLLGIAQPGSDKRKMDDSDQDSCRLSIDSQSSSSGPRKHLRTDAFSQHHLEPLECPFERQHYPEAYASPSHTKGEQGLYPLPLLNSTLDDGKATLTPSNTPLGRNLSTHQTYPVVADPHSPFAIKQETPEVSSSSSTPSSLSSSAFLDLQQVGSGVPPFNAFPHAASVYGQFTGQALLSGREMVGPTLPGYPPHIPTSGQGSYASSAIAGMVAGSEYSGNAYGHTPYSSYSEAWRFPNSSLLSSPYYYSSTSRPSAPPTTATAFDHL", "assay": "inhibitors of PAX8-driven TPO luciferase reporter, dose response, RMG-I cells, cherry-pick (AID 687027);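 note: luciferase reporter driven by Pax8 target thyroperoxidase promoter measured by SteadyGlo luminescence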", "type": "functional, cell-based"}, "[28]": {"assay": "NIH:OVCAR-3 ovarian cancer cell cytotoxicity, dose response, PAX8 inhibitor project, plate reader, dry powder samples (AID 743044)", "type": "functional, cell-based"}, "[29]": {"target": "Kallikrein-7 (Homo sapiens, UniProt P49862)", "sequence (P49862 whole entry)": "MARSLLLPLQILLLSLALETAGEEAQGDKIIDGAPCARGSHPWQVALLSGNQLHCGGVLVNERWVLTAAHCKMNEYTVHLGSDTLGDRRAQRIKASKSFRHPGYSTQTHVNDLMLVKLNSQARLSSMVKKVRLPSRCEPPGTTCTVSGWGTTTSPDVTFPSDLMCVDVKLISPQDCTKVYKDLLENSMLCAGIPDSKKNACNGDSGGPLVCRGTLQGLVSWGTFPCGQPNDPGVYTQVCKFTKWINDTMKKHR", "assay": "Fluorescence Intensity-based biochemical primary high throughput dose response assay to identify activators of kallikrein-7 (K7) zymogen."}, "[30]": {"assay": "inhibitors of PGC1a acetylation in cells, dose response, cell-based, cherry-picked samples (AID 720514);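 note: potency may reflect raised or lowered acetylation signal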", "type": "functional"}}, "note": "The source made the active and inactive calls."}
{"smiles": "O=C1[C@@H]2Cc3c([nH]c4ccccc34)C(c3cccc([N+](=O)[O-])c3)N2C(=O)CN1CCCO", "note": "(stereo not given in full)", "values": [{"measurement": "IC50", "setting": "[1]", "value": "83.3 µM (inactive)"}, {"measurement": "IC50", "setting": "[2]", "value": "0.528 µM (active)"}, {"measurement": "IC50", "setting": "[3]", "value": "> 83.3 µM (inactive)"}, {"measurement": "IC50", "setting": "[4]", "value": "0.911 µM (active)"}]}
{"smiles": "Cc1c2cnn(CC(=O)Nc3c(F)c(F)cc(F)c3F)c(=O)c2c(C)n1Cc1ccccc1F", "values": [{"measurement": "IC50", "setting": "[5]", "value": "49.3 µM (active)"}, {"measurement": "IC50", "setting": "[6]", "value": "7.6 µM (active)"}, {"measurement": "IC50", "setting": "[7]", "value": "19.5 µM (active)"}, {"measurement": "IC50", "setting": "[8]", "value": "50.5 µM (active)"}, {"measurement": "IC50", "setting": "[9]", "value": "9.31 µM (active)"}, {"measurement": "IC50", "setting": "[10]", "value": "2.96 µM (active)"}, {"measurement": "IC50", "setting": "[11]", "value": "> 43.8 µM (inactive)"}, {"measurement": "IC50", "setting": "[12]", "value": "> 100 µM (inactive)"}, {"measurement": "IC50", "setting": "[13]", "value": "50 µM (inactive)"}]}
{"smiles": "CN1CCS/C1=C/C=C1/SC(=S)N(Cc2ccccc2)C1=O", "values": [{"measurement": "IC50", "setting": "[14]", "value": "> 83.3 µM (inactive)"}, {"measurement": "IC50", "setting": "[15]", "value": "10.2 µM (inactive)"}]}
{"smiles": "CCCOC(=O)c1[nH]c2c(c1C)C(=O)CC(c1cccs1)C2", "note": "(stereo not given)", "values": [{"measurement": "EC50", "setting": "[16]", "value": "1.82 µM (active)"}, {"measurement": "EC50", "setting": "[17]", "value": "1.01 µM (active)"}, {"measurement": "EC50", "setting": "[18]", "value": "0.567 µM (active)"}, {"measurement": "IC50", "setting": "[19]", "value": "> 80 µM (inactive)"}, {"measurement": "EC50", "setting": "[20]", "value": "0.167 µM (active)"}, {"measurement": "EC50", "setting": "[21]", "value": "0.391 µM (active)"}, {"measurement": "AC50", "setting": "[22]", "value": "0.594 µM (active)"}, {"measurement": "EC50", "setting": "[23]", "value": "0.399 µM (active)"}, {"measurement": "EC50", "setting": "[24]", "value": "0.615 µM (active)"}]}
{"smiles": "Cc1ccnc(NC(=O)c2ccc3nc(O)c(O)nc3c2)c1", "values": [{"measurement": "IC50", "setting": "[25]", "value": "> 67.5 µM (inactive)"}, {"measurement": "EC50", "setting": "[26]", "value": "> 67.5 µM (inactive)"}]}
{"smiles": "C[C@@H]1CN([C@H](C)CO)S(=O)(=O)c2ccc(C#Cc3ccc(F)cc3)cc2O[C@H]1CN(C)C(=O)NC1CCCCC1", "values": [{"measurement": "AC50", "setting": "[27]", "value": "9.47 µM (active)"}, {"measurement": "AC50", "setting": "[28]", "value": "48.1 µM (active)"}]}
{"smiles": "Nc1nc2ccc(Cl)cc2cc1C(=O)NCCCN1CCOCC1", "values": [{"measurement": "EC50", "setting": "[29]", "value": "28.3 µM (inactive)"}]}
{"smiles": "C[C@H](CO)N1C[C@H](C)[C@@H](CN(C)CC2CCOCC2)Oc2ncc(Br)cc2C1=O", "values": [{"measurement": "AC50", "setting": "[30]", "value": "36.4 µM (active)"}]}
